Assay: Hydroxyapatite assay (hydroxyapatite adsorption chromatography, bone-targeting potential)
Type: physicochemical
Conditions: corrected retention K=(retention time-void time)/void; TSK-Gel HA 1000 HPLC column; linear gradient 10 mM to 500 mM sodium phosphate, 0.15 N NaCl, pH 6.8
Protocol: Hydroxyapatite is the principal mineral component of bone. Hydroxyapatite adsorption chromatography is used as an assay to evaluate the bone-targeting potential of both individual bone-targeting moieties (“monomers”) and of pharmaceuticals incorporating bone-targeting groups.
Method: The rentention time of a test compound is measured using a linear gradient from 10 mM sodium phosphate, 0.15 N NaCl, pH=6.8 to 500 mM sodium phosphate, 0.15 N NaCl, […] on a TSK-Gel HA 1000 high pressure liquid chromatography column (7.5 mm×75 mm). The rentention time of the compound is expressed in terms of K=(retention time-void time)/void. This K value is corrected using two reference compounds to correct from inter-column and inter-system variation to obtain a K′ value.
Reference Compounds: K′ values were determined for known bone targeted compounds, the bisphosphonate, alendronate and tetracycline.

NCCCC(O)(P(=O)(O)O)P(=O)(O)O [Alendronate, alendronate]
K′ value: 3.7

Reference: patent US20030114467A1, “Novel pyrazolo- and pyrrolo-pyrimidines and uses thereof” (priority 2001, published 2003)
